# How the values were obtained:
# Format in all cases: biochemical
# HDAC8 = molecular target: T1, HDAC8 (Homo sapiens, UniProt Q9BY41); assay: HDAC8 fluorometric enzyme inhibition assay, purified recombinant enzyme, 10-point dose-response; conditions: for IC50: Table 1, purified recombinant HDAC8 10 nM, mean of three independent experiments, >35 µM = weak inhibitor; for IC50 (HDAC4)/IC50 (HDAC8): selectivity ratio HDAC8 over HDAC4
# T1 construct: made in house
# T1 sequence (Q9BY41 1-377): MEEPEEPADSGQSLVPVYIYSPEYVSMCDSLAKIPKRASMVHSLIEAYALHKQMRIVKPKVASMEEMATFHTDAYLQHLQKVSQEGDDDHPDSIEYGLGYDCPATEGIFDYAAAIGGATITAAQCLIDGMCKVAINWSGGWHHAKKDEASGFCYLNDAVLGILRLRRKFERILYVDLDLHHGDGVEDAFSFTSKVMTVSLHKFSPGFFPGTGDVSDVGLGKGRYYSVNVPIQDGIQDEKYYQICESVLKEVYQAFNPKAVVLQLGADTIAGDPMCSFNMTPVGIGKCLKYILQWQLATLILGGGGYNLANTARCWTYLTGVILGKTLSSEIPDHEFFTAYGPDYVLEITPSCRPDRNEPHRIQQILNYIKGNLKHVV
# Procedure: (§1) Therefore, the first stage of biological evaluation focused on determining inhibitory concentration (IC50) values of the squaric acid derivatives against HDAC8 and HDAC4 using purified recombinant enzymes. Enzymatic inhibition was quantified using 10‐point dose–response assays, from which IC50 values were calculated (Table 1). HDAC8 and HDAC4 were employed at concentrations of 10 nM and 1 nM, respectively, while other zinc‐dependent HDAC isoenzymes were used at approximate concentrations of ∼1 nM, reflecting the purity of the commercially available preparations. […]
# (§2) 1.3.1 HDAC Assay General Inform ation
# (§3) The activity of HDAC1, HDAC4, HDAC6, HDAC8, and HDAC11 was determined using a fluorometric assay in black half-area 96-well microplates (Greiner Bio -One , Germany). HDAC1 (#50051) and HDAC 6 (#50006) were purchased from BPS Bioscience.
# (§4) HDAC4, HDAC8 and HDAC11 were produced in house as previously described.7- 9 The enzymes were pre-incubated with serial dilutions of the compounds for 1 hour at 30 °C in either assay buffer (25 mM Tris-HCl, 75 mM KCl and 0.001% (v/v) Pluronic F -127, pH 8.0) or MAL buffer (137 m M NaCl, 50 mM Tris-HCl, 2.7 mM KCl, 1 mM MgCl₂, 0 .5 mg/ml bovine serum albumin (BSA), pH 8.0b) for HDAC11. The enzyme reaction was initiated by the addition of the following substrates: 20 µM Boc-L ys(T FA) -AMC for HDAC4 and HDAC8; 80 µM Boc-L ys(T FA) -AMC for HDAC11; and 50 µM Boc -Lys(Ac)-AMC for HDAC1 and HDAC6. After an incubation period of 60 minutes, the reaction was terminated by the addition of 1.7 µM 9,9,9-trifluoro-8-oxo-N -phenyl -nonanamide (SATFMK) for […]
# (§5) HDAC6, and 1 µM 1,1-dimethyl -2-[5-(trifluoromethyl)pyrazin-2-yl]isoindoline -4-carbohydroxamic acid (FT895) for HDAC11. The deacetylated substrate was then cleaved into fluorescent 7-amino -4- methylcoumarin (AMC) by the addition of 0.42 mg/mL trypsin.
# (§6) Measurements were performed using a PHERAstar FS fluorescence microplate reader (BMG LABTECH) with excitation at 360 nm and emission at 460 nm. The normalised enzyme activities were plotted against the respective ligand concentration and fitted with a four-parameter logistic function using GraphPad Prism 6 software.
# HDAC1 = molecular target: T2, HDAC1 (Homo sapiens, UniProt Q13547); assay: HDAC1 fluorometric enzyme inhibition assay, purified enzyme; conditions: Table 2; purified enzyme ~1 nM
# T2 construct: purchased BPS Bioscience 50051
# Procedure: as §1, §2, §3, §4, §5, §6
# HDAC6 = molecular target: T3, HDAC6 (Homo sapiens, UniProt Q9UBN7); assay: HDAC6 fluorometric enzyme inhibition assay, purified enzyme; conditions: Table 2; purified enzyme ~1 nM
# T3 construct: purchased BPS Bioscience 50006
# T3 sequence (Q9UBN7 1-1215): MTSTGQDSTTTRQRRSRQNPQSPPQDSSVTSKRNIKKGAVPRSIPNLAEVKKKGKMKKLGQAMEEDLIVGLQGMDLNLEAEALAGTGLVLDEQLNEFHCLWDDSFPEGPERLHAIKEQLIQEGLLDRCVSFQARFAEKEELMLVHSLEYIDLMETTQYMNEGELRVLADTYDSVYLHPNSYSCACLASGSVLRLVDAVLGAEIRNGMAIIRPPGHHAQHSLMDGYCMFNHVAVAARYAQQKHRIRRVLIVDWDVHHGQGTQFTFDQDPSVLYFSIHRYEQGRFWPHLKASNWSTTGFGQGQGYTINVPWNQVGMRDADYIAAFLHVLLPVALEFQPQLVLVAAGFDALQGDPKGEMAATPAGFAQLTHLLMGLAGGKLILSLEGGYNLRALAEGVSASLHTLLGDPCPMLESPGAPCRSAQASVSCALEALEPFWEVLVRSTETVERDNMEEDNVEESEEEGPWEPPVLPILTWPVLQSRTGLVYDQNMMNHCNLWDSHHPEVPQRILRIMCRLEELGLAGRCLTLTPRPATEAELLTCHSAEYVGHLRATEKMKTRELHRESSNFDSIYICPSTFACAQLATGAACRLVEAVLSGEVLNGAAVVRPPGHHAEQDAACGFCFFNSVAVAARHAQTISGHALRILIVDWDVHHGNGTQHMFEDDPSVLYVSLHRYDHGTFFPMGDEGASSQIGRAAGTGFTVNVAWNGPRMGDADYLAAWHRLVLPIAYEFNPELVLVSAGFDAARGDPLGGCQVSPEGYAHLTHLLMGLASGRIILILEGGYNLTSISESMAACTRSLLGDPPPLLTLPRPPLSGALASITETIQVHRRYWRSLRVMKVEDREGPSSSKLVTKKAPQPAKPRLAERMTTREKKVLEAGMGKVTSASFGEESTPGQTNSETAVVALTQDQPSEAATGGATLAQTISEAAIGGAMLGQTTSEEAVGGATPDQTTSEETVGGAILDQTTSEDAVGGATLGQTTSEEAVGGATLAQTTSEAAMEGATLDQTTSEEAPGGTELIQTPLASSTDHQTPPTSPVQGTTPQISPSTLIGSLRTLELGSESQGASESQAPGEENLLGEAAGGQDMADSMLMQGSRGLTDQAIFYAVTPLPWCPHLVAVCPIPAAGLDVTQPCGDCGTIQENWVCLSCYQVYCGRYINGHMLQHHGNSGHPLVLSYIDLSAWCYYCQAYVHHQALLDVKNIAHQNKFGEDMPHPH
# Procedure: as §1, §2, §3, §4, §5, §6
# HDAC4 = molecular target: T4, HDAC4 (Homo sapiens, UniProt P56524); assay: HDAC4 fluorometric enzyme inhibition assay, purified recombinant enzyme, 10-point dose-response; conditions: Table 1; purified recombinant HDAC4 1 nM; mean of three independent experiments; >35 µM = weak inhibitor
# T4 construct: made in house
# Procedure: as §1, §2, §3, §4, §5, §6
# HDAC11 = molecular target: T5, HDAC11 (Homo sapiens, UniProt Q96DB2); assay: HDAC11 fluorometric enzyme inhibition assay, purified enzyme; conditions: Table 2; purified enzyme ~1 nM
# T5 construct: made in house
# T5 sequence (Q96DB2 1-347): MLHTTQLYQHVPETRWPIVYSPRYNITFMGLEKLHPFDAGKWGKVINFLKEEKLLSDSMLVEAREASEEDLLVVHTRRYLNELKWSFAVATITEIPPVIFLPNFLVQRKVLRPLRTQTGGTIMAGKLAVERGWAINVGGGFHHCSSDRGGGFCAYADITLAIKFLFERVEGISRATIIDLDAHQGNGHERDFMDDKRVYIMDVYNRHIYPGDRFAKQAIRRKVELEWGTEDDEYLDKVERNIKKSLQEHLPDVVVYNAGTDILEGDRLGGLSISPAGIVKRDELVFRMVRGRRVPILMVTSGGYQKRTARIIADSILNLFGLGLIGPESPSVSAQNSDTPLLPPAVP
# Procedure: as §1, §2, §3, §4, §5, §6
# T4 sequence (P56524 whole entry): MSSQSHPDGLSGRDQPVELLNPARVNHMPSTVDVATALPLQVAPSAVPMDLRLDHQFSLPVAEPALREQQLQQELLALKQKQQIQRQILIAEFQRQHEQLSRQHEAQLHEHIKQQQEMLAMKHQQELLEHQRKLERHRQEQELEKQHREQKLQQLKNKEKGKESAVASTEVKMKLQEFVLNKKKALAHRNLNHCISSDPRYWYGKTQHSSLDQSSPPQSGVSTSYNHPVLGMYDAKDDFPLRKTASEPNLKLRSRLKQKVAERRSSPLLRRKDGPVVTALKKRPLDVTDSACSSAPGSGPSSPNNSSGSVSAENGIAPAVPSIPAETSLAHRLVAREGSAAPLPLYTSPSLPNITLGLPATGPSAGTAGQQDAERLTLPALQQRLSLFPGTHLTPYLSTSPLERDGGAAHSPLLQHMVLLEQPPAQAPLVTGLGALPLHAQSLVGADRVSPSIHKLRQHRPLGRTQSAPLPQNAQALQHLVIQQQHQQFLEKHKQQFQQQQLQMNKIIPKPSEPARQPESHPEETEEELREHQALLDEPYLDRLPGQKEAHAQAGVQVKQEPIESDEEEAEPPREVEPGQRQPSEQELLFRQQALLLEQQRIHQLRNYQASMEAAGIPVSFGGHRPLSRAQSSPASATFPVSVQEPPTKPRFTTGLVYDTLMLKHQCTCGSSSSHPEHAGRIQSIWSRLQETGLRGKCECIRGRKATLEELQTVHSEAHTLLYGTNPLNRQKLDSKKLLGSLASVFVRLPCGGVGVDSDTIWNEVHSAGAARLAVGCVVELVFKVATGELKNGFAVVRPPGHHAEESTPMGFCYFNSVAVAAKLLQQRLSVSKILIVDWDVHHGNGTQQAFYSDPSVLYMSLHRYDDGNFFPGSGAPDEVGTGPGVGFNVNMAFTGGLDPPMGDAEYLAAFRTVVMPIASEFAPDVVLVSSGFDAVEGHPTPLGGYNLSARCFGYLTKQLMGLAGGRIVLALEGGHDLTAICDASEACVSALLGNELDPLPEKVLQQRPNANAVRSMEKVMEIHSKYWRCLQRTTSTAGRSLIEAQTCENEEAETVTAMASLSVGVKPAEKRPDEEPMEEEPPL
# T2 sequence (Q13547 whole entry): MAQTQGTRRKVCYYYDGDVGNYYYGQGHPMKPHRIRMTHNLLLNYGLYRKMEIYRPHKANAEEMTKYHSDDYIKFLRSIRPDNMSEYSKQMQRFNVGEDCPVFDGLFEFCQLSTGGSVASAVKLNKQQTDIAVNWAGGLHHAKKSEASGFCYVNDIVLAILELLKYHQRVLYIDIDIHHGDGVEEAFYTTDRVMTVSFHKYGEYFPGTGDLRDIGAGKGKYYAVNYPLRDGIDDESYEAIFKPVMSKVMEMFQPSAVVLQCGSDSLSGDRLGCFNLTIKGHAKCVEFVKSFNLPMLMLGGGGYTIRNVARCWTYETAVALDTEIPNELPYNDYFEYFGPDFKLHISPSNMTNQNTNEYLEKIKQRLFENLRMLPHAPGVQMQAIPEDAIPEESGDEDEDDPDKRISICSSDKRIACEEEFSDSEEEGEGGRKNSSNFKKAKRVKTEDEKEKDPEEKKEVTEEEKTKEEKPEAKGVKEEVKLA
IC50 (HDAC8) [µM],IC50 (HDAC4)/IC50 (HDAC8) (HDAC8),IC50 (HDAC1) [µM],IC50 (HDAC6) [µM],IC50 (HDAC4) [µM],IC50 (HDAC11) [µM],Compound
1.2 ± 0.03,7.1,7 ± 2.7,2.3 ± 1.6,8.5 ± 5.3,25 ± 8,CCOc1c(Nc2ccc(F)cc2)c(=O)c1=O [Compound 9b]
1.8 ± 0.7,2.6,8.3 ± 3.6,6.1 ± 3.5,4.6 ± 0.9,> 35,O=c1c(NCc2ccccc2)c(NCc2ccccc2)c1=O [Compound 13b]
2 ± 1,5.5,8.1 ± 4.3,2.9 ± 1.3,11 ± 4,> 35,O=c1c(Nc2ccc(Br)cc2)c(Nc2ccc(Br)cc2)c1=O [Compound 13c]
1.3 ± 0.2,10.8,17 ± 16,6.9 ± 2.5,14 ± 3,> 35,CN(Cc1ccccc1)c1c(N(C)Cc2ccccc2)c(=O)c1=O [Compound 14b]

# From publication PMC13110267, “Fair and Square: Design, Synthesis and Biological Evaluations of Squaric Acid Derivatives as Novel HDAC8 Inhibitors” (Chemmedchem, 2026)
